Patent publication US20240336583A1, “BENZO-RING-CONTAINING DERIVATIVE, AND PREPARATION METHOD THEREFOR AND USE THEREOF” (SHUJING BIOPHARMA CO., LTD, priority 2021, published 2024)

Assays:
Type in all cases: in vivo
ICR mice [1] = assay: Mouse righting reflex test (ED50, sequential method, tail vein bolus); settings: for Symptoms in test animals in ED50 test: after tail vein administration; for ED50: Mus musculus, read-out: ED50 (median effective dose: dose required to cause 50% of the mice to lose the righting reflex); for ED50 / ED50 (median effective dose: dose required to cause 50% of the mice to lose the righting reflex): tail vein bolus within 10 seconds, sequential method, AOT425 software
Experimental: The ED50 value and LD50 value of the compound of the present invention were measured using a sequential method. The TI (therapeutic index) of the drug was calculated.
(§1) SPF grade ICR mice (Pizhou Oriental Breeding Co., Ltd.), 22-28 g, 15 mice/group. All mice received 3 days of quarantine and acclimation and were transferred from the feeding room to the laboratory for acclimation 1 h prior to the experiment.
(§2) The test compound was dissolved in 20% fat emulsion or purified water to prepare a 5 mg/ml drug liquid.
(§3) During the test, firstly a mouse was dosed at the tail vein, and the bolus injection was completed within 10 seconds. […] Finally, the AOT425 Statpm software was used to calculate the ED50 (median effective dose: the dose required to cause 50% of the mice to lose the righting reflex by the test) and LD50 (median lethal dose: the dose required to cause 50% of the mice to die by the test) values. The formula for TI (therapeutic index) was: TI=LD50/ED50.

[2] = Mouse LD50 test (sequential method, tail vein bolus); settings: mouse, in vivo, intravenous; ICR mice, tail vein bolus within 10 seconds, sequential method, AOT425 software; read-out: LD50 (median lethal dose: dose required to cause 50% of the mice to die)
Experimental: (§4) The ED50 value and LD50 value of the compound of the present invention were measured using a sequential method. The TI (therapeutic index) of the drug was calculated. The animal symptoms in the experimental process were observed, and the drug effect, safety and side effects of the compound of the present invention were examined.
as §1, §2, §3

ICR mice [3] = assay: as above; settings: TI=LD50/ED50, ICR mice, tail vein
Experimental: as §4, §1, §2, §3

Row | SMILES | Symptoms in test animals in ED50 test (ICR mice [1]) | ED50 (ICR mice [1]) | ED50 (median effective dose: dose required to cause 50% of the mice to lose the righting reflex) (ICR mice [1]) | LD50 [2] | TI (therapeutic index) (ICR mice [3])
1 | CC1COc2c(F)cc(C(C)C3CC3)c(OCOP(=O)([O-])[O-])c21.[Na+].[Na+] (single isomer, unassigned) [Example 10A1, sodium (5-(1-cyclopropyl)-7-fluoro-3-methyl-2,3-dihydrobenzofuran-4-yl) oxymethyl phosphate] | The animals' condition was stable after |  |  |  | 
2 | CC(C)c1cccc(C(C)C)c1OCOP(=O)(O)O [Fospropofol sodium, reference compound] |  | 112 mg/kg |  |  | 
3 | CC1COc2c(F)cc(C(C)C3CC3)c(O)c21 (single isomer, unassigned) [Example 11A1, 5-(1-cyclopropylethyl)-7-fluoro-3-methyl-2,3-dihydrobenzofuran-4-ol] | The animals' condition was stable after |  | 4.0 mg/kg |  | 
4 | CC(C)c1cccc(C(C)C)c1O [Propofol, reference compound] | Some animals exhibited body twitching and | 12.9 mg/kg |  | 55.9 mg/kg | 4.3
5 | CC1COc2c(F)cc(C(C)C3CC3)c(O)c21 (single isomer, unassigned) [Example 4, 5-(1-cyclopropylethyl)-7-fluoro-3-methyl-2,3-dihydrobenzofuran-4-ol] | The animals' condition was stable after |  | 8.9 mg/kg | 62.5 mg/kg | 7.0
